Results taken from PMC12155096 (International Journal of Molecular Sciences, 2025).
Structures can show the parent of a compound that is named as a salt. Where two headings read alike, the source gives them in different places.

Columns and labels:
[1] = biological target: T1, human CYP1A2 (Homo sapiens, UniProt P05177); assay: biochemical
T1 sequence (P05177 1-516): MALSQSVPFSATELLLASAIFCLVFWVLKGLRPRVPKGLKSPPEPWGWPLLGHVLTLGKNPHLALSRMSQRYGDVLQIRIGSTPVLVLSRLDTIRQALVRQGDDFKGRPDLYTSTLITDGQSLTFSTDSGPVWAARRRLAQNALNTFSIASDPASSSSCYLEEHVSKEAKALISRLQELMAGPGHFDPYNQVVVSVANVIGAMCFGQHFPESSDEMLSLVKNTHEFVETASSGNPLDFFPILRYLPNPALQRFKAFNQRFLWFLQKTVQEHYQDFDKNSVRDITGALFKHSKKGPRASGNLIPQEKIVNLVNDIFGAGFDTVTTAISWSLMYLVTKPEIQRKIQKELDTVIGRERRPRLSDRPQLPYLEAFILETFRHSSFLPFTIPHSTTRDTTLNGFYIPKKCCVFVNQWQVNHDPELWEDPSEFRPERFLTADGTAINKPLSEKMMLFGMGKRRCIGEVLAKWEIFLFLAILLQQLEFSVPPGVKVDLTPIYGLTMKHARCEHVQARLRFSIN

[2] = biological target: human CYP2D6 (Homo sapiens, UniProt P10635)
[3] = biological target: T2, human CYP2C9 (Homo sapiens, UniProt P11712)
[4] = biological target: T3, human CYP2C19 (Homo sapiens, UniProt P33261)
[5] = biological target: T4, CYP3A4 (Homo sapiens, UniProt P08684); assay: biochemical
[6] = biological target: Photinus pyralis (firefly) luciferase (Photinus pyralis, UniProt P08659); assay: biochemical; assay type: biochemical
[7] = biological target: T2, human CYP2C9; assay: biochemical
[8] = biological target: T3, human CYP2C19; assay: biochemical
[9] = biological target: T1, human CYP1A2
[10] = biological target: T4, CYP3A4
[11] = CYP1A2 AC50 (half-maximal activity concentration)
[12] = CYP3A4 AC50 (half-maximal activity concentration)
[13] = CYP2C19 IC50 (half-maximal inhibitory concentration)
[14] = CYP3A4 IC50 (half-maximal inhibitory concentration)
[15] = CYP2C19 AC50 (half-maximal activity concentration)
[16] = CYP1A2 IC50 (half-maximal inhibitory concentration)
[17] = CYP2C9 IC50 (half-maximal inhibitory concentration)

T4 sequence (P08684 whole entry): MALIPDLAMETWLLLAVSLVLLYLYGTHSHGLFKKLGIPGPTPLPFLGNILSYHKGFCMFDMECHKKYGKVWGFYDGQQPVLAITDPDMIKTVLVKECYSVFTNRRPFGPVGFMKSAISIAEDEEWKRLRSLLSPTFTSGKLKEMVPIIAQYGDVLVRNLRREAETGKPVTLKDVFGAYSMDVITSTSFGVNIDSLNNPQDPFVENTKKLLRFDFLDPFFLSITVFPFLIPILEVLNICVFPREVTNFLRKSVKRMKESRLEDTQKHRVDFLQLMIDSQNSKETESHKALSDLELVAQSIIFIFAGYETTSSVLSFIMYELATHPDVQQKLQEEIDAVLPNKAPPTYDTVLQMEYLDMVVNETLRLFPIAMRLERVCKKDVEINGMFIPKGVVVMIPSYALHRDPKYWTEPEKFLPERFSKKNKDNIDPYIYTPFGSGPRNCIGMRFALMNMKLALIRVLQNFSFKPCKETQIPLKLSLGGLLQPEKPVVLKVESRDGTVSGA
Sequence of Photinus pyralis (firefly) luciferase (P08659 whole entry): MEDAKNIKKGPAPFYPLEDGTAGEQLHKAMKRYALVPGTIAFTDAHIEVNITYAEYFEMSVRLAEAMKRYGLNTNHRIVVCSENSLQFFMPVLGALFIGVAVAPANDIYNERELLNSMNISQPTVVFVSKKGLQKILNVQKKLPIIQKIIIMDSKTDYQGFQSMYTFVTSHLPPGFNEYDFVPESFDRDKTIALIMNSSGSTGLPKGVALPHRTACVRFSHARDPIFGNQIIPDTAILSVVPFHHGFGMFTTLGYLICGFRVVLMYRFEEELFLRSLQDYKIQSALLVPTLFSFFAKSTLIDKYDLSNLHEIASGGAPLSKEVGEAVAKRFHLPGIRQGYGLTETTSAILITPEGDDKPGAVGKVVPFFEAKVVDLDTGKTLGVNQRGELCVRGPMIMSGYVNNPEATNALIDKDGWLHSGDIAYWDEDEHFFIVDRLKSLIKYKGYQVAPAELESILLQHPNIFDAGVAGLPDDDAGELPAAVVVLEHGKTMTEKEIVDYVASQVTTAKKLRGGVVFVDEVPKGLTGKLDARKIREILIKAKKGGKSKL
Sequence of human CYP2D6 (P10635 whole entry): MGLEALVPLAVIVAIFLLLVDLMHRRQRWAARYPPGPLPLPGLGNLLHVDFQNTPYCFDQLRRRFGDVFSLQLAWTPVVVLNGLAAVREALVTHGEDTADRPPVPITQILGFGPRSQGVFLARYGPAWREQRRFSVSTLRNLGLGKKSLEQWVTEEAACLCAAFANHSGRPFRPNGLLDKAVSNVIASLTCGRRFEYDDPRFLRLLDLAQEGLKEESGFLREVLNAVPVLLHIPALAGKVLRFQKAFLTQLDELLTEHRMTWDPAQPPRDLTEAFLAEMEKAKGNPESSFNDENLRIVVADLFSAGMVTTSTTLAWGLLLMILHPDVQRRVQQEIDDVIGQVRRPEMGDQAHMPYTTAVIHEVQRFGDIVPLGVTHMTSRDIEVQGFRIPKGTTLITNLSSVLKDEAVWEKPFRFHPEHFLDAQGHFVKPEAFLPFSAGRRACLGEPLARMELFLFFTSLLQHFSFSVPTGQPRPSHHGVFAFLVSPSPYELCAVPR
T2 sequence (P11712 whole entry): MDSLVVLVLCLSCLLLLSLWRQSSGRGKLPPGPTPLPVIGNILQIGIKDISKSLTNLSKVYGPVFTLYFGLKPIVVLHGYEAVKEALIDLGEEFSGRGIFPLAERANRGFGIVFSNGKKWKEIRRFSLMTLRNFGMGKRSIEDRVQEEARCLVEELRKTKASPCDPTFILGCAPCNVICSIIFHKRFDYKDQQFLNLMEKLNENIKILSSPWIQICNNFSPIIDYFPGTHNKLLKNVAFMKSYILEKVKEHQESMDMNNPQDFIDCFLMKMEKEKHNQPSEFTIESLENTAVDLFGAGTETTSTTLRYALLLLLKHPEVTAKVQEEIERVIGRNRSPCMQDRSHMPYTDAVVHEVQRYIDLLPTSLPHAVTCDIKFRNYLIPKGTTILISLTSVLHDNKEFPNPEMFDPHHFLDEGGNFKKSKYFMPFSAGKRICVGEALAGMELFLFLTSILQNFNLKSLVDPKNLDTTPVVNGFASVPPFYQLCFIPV
T3 sequence (P33261 whole entry): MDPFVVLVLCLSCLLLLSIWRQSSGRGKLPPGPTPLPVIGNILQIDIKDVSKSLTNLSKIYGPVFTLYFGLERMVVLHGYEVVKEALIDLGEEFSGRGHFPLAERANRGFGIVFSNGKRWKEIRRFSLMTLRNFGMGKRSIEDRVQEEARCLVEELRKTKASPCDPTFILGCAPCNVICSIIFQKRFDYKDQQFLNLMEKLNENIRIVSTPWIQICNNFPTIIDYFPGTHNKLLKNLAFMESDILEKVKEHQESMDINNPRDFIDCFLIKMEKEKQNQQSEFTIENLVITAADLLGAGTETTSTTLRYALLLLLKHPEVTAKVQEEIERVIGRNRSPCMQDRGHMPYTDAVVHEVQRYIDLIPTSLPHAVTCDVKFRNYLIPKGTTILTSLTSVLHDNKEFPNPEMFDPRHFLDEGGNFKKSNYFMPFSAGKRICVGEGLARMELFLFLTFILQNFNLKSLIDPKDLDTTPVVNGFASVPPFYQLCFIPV

For `COC(=O)c1ccc(C(=O)OC)cc1` [Dimethyl terephthalate], the AC50 [1, 11] was 9.66 µM, the “CYP2D6 AC50 (half-maximal activity concentration)” value (from here on “CYP2D6 AC50”) [2] was “Inactive” and the “CYP2C9 AC50 (half-maximal activity concentration)” value (“CYP2C9 AC50” for short) [3] was “Inactive”. For the same compound, the “CYP2C19 AC50 (half-maximal activity concentration)” value (“CYP2C19 AC50” for short) [4] was “Inactive” and the AC50 [5, 12] was 40.1 µM.
For `O=S1(=O)OCC2C(CO1)C1(Cl)C(Cl)=C(Cl)C2(Cl)C1(Cl)Cl` (centres unmarked) [Endosulfan sulfate], the IC50 ([1]; CYP1A2 IC50) was 47.5 µM, the IC50 [6] was 53.2 µM and the “CYP2D6 IC50” value [2] was “Inactive”. It also gave an IC50 ([7]; CYP2C9 IC50) of 18.7 µM, an IC50 ([8]; CYP2C19 IC50) of 2.25 µM and an IC50 ([5]; CYP3A4 IC50) of 0.22 µM.
In the case of `CCCCc1c(C)nc(NCC)[nH]c1=O` [Ethirimol], the AC50 [1, 11] is reported as 31.1 µM, the “CYP2D6 AC50” value [2] is reported as “Inactive” and the “CYP2C9 AC50” value [3] is reported as “Inactive”. For the same compound, the “CYP2C19 AC50” value [4] was “Inconclusive inhibitor” and the AC50 [5, 12] was 31.8 µM.
For `CCN(Cc1c(F)cccc1Cl)c1c([N+](=O)[O-])cc(C(F)(F)F)cc1[N+](=O)[O-]` [Flumetralin], the “Luciferase IC50 (half-maximal inhibitory concentration)” value [6] was “Inactive”, the “CYP2D6 IC50 (half-maximal inhibitory concentration)” value [2] was “Inactive” and the IC50 [7] was 7.39 µM. The “CYP1A2 IC50 (half-maximal inhibitory concentration)” value [9] was “Inactive”, the IC50 [8, 13] was 2.22 µM and the IC50 [5, 14] was 0.38 µM.
`CC(=O)[C@H]1CC[C@H]2[C@@H]3CC[C@H]4C[C@](C)(O)CC[C@]4(C)[C@H]3CC[C@]12C` [Ganaxolone] was tested, and the AC50 [1, 11] was 25.3 µM, the “CYP2D6 AC50” value [2] was “Inactive” and the “CYP2C9 AC50” value [3] was “Inactive”. The “CYP2C19 AC50” value [4] was “Inactive” and the AC50 [5, 12] was 3.37 µM.
In the case of `CNC(=O)Oc1ccccc1C(C)C` [Isoprocarb], the AC50 [1, 11] is reported as 35.6 µM, the “CYP2D6 AC50” value [2] is reported as “Inactive” and the “CYP2C9 AC50” value [3] is reported as “Inconclusive inhibitor”. It also gave an AC50 [8, 15] of 63.5 µM and an AC50 [5, 12] of 49.3 µM.
In the case of `CO/N=C(/C(=O)OC)c1ccccc1COc1ccccc1C` [Kresoxim-methyl], the IC50 [1, 16] is reported as 22 µM, the “Luciferase IC50 (half-maximal inhibitory concentration)” value [6] is reported as “Inactive” and the “CYP2D6 IC50 (half-maximal inhibitory concentration)” value [2] is reported as “Inactive”. The IC50 [7, 17] was 19.6 µM, the IC50 [8, 13] was 0.51 µM and the IC50 [5, 14] was 9.48 µM.
`CCN(CC)C(=O)C(C)Oc1cccc2ccccc12` (centres unmarked) [Napropamide] was tested, and the IC50 [1, 16] was 25 µM, the “Luciferase IC50 (half-maximal inhibitory concentration)” value [6] was “Inactive” and the “CYP2D6 IC50 (half-maximal inhibitory concentration)” value [2] was “Inactive”. It also gave an IC50 [7, 17] of 29.9 µM, an IC50 [8, 13] of 0.66 µM and an IC50 [5, 14] of 7.56 µM.
For `O=[N+]([O-])c1c(Cl)c(Cl)c(Cl)c(Cl)c1Cl` [Pentachloronitrobenzene], the AC50 [1, 11] was 1.94 µM, the “CYP2D6 AC50” value [2] was “Inactive” and the “CYP2C9 AC50” value [3] was “Inconclusive inhibitor”. For the same compound, the “CYP2C19 AC50” value [4] was “Inconclusive inhibitor” and the AC50 [5, 12] was 4.7 µM.
In the case of `Cc1ccc2ccccc2n1` [Quinaldine], the AC50 [1, 11] is reported as 44 µM, the “CYP2D6 AC50” value [2] is reported as “Inactive” and the “CYP2C9 AC50” value [3] is reported as “Inactive”. For the same compound, the “CYP2C19 AC50” value [4] was “Inactive” and the AC50 [5, 12] was 47.7 µM.
In the case of `CCNc1nc(NCC)nc(SC)n1` [Simetryn], the AC50 [1, 11] is reported as 8.11 µM, the “CYP2D6 AC50” value [2] is reported as “Inactive” and the “CYP2C9 AC50” value [3] is reported as “Inconclusive activator”. The “CYP2C19 AC50” value [4] was “Inconclusive inhibitor” and the AC50 [5, 12] was 46.2 µM.
`CCNc1nc(NC(C)(C)C)nc(SC)n1` [Terbutryn] was tested, and the AC50 [1, 11] was 7.74 µM, the “CYP2D6 AC50” value [2] was “Inactive” and the “CYP2C9 AC50” value [3] was “Inconclusive activator”. For the same compound, the AC50 [8, 15] was 39.6 µM and the AC50 [5, 12] was 11.5 µM.
With `O[Si](c1ccccc1)(c1ccccc1)c1ccccc1` [Triphenylsilanol] the “Luciferase IC50 (half-maximal inhibitory concentration)” value [6] was “Inactive”, the “CYP2D6 IC50 (half-maximal inhibitory concentration)” value [2] was “Inactive” and the AC50 ([7]; CYP2C9 AC50 (half-maximal activity concentration)) was 0.53 µM. The IC50 [7, 17] was 0.53 µM, the “CYP3A4 IC50 (half-maximal inhibitory concentration)” value [10] was 13.71 ± 1.89 (172 ± 26) µM and the “CYP1A2 AC50 (half-maximal activity concentration)” value [9] was “Inconclusive inhibitor”. The “CYP1A2 IC50 (half-maximal inhibitory concentration)” value [9] was “Inactive”, the AC50 [8, 15] was 0.57 µM and the IC50 [8, 13] was 0.57 µM. It also gave an AC50 [5, 12] of 13.7 µM.
With `COC(=O)C1=C(C)NC(C)=C(C(=O)OCCc2ccc(N3CCN(C(c4ccccc4)c4ccccc4)CC3)cc2)C1c1cccc([N+](=O)[O-])c1` (centres unmarked) [Watanidipine] the IC50 [1] was 14.6 µM, the “Luciferase IC50 (half-maximal inhibitory concentration)” value [6] was “Inactive” and the “CYP2D6 IC50 (half-maximal inhibitory concentration)” value [2] was “Inactive”. The IC50 [7] was 0.49 µM, the IC50 [8] was 8.39 µM and the IC50 [5] was 2.38 µM.
For `O=c1c2ccccc2oc2ccccc12` [Xanthone], the AC50 [1] was 0.5 µM, the IC50 [1] was 0.5 µM and the IC50 [6] was 23.6 µM. For the same compound, the “CYP2D6 IC50 (half-maximal inhibitory concentration)” value [2] was “Inactive”, the AC50 [7] was 35.7 µM and the IC50 [7] was 35.7 µM. For the same compound, the AC50 [8] was 29.7 µM, the IC50 [8] was 29.7 µM and the AC50 [5] was 14.5 µM.
